{"source": "PubChem BioAssay (NCI)", "assay_in_all_cases": "NCI-60 cell line screen, 384-well format", "key": {"[1]": {"tested_on": "NCI/ADR-RES ovarian"}, "[2]": {"tested_on": "SK-MEL-28 melanoma"}, "[3]": {"tested_on": "RPMI-8226 leukemia"}, "[4]": {"tested_on": "MDA-MB-231 breast"}, "[5]": {"tested_on": "A498 renal"}, "[6]": {"tested_on": "HS 578T breast"}, "[7]": {"tested_on": "ACHN renal"}, "[8]": {"tested_on": "SNB-19 CNS"}, "[9]": {"tested_on": "SF-295 CNS"}, "[10]": {"tested_on": "MDA-MB-435 melanoma"}, "[11]": {"tested_on": "EKVX NSCLC"}, "[12]": {"tested_on": "NCI-H322M lung"}, "[13]": {"tested_on": "MCF7 breast"}, "[14]": {"tested_on": "COLO 205 colon"}, "[15]": {"tested_on": "TK-10 renal"}, "[16]": {"tested_on": "UACC-257 melanoma"}, "[17]": {"tested_on": "LOX IMVI melanoma"}, "[18]": {"tested_on": "KM12 colon"}, "[19]": {"tested_on": "HCT-15 colon"}, "[20]": {"tested_on": "A549 NSCLC"}, "[21]": {"tested_on": "HOP-92 NSCLC"}, "[22]": {"tested_on": "IGROV1 ovarian"}, "[23]": {"tested_on": "DU-145 prostate"}, "[24]": {"tested_on": "OVCAR-4 ovarian"}, "[25]": {"tested_on": "HCT-116 colon"}, "[26]": {"tested_on": "CAKI-1 renal"}, "[27]": {"tested_on": "T-47D breast"}, "[28]": {"tested_on": "SR leukemia"}, "[29]": {"tested_on": "SN12C renal"}, "[30]": {"tested_on": "SW-620 colon"}, "[31]": {"tested_on": "OVCAR-5 ovarian"}, "[32]": {"tested_on": "SK-OV-3 ovarian"}, "[33]": {"tested_on": "NCI-H23 lung"}, "[34]": {"tested_on": "MDA-MB-468 breast"}, "[35]": {"tested_on": "HOP-62 NSCLC"}, "[36]": {"tested_on": "HCC-2998 colon"}, "[37]": {"tested_on": "786-0 renal"}, "[38]": {"tested_on": "HT29 colon"}, "[39]": {"tested_on": "SF-539 CNS"}, "[40]": {"tested_on": "MALME-3M melanoma"}, "[41]": {"tested_on": "RXF 393 renal"}, "[42]": {"tested_on": "NCI-H522 lung"}, "[43]": {"tested_on": "BT-549 breast"}, "[44]": {"tested_on": "PC-3 prostate"}, "[45]": {"tested_on": "OVCAR-8 ovarian"}, "[46]": {"tested_on": "NCI-H226 lung"}, "[47]": {"tested_on": "UO-31 renal"}, "[48]": {"tested_on": "MOLT-4 leukemia"}, "[49]": {"tested_on": "NCI-H460 NSCLC"}, "[50]": {"tested_on": "U251 glioblastoma"}}, "note": "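At the GI50, growth is halved. TGI: concentration producing complete growth inhibition.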"}
{"smiles": "CNC(=O)c1ccccc1Sc1ccc2c(/C=C/c3ccccn3)n[nH]c2c1", "values": [{"measurement": "GI50", "setting": "[1]", "result": 5.09, "unit": "µM"}, {"measurement": "TGI", "setting": "[1]", "result": 18.4, "unit": "µM"}, {"measurement": "GI50", "setting": "[2]", "result": 22.4, "unit": "µM"}, {"measurement": "TGI", "setting": "[2]", "result": "> 100", "unit": "µM"}, {"measurement": "GI50", "setting": "[3]", "result": 3.77, "unit": "µM"}, {"measurement": "TGI", "setting": "[3]", "result": 13.9, "unit": "µM"}, {"measurement": "GI50", "setting": "[4]", "result": 21.7, "unit": "µM"}, {"measurement": "TGI", "setting": "[4]", "result": "> 100", "unit": "µM"}, {"measurement": "GI50", "setting": "[5]", "result": 35.4, "unit": "µM"}, {"measurement": "TGI", "setting": "[5]", "result": "> 100", "unit": "µM"}, {"measurement": "GI50", "setting": "[6]", "result": 2.17, "unit": "µM"}, {"measurement": "TGI", "setting": "[6]", "result": 35.7, "unit": "µM"}, {"measurement": "GI50", "setting": "[7]", "result": 13.8, "unit": "µM"}, {"measurement": "TGI", "setting": "[7]", "result": "> 100", "unit": "µM"}, {"measurement": "GI50", "setting": "[8]", "result": 66, "unit": "µM"}, {"measurement": "TGI", "setting": "[8]", "result": "> 100", "unit": "µM"}, {"measurement": "GI50", "setting": "[9]", "result": 3.59, "unit": "µM"}, {"measurement": "TGI", "setting": "[9]", "result": 69, "unit": "µM"}, {"measurement": "GI50", "setting": "[10]", "result": "> 100", "unit": "µM"}, {"measurement": "TGI", "setting": "[10]", "result": "> 100", "unit": "µM"}, {"measurement": "GI50", "setting": "[11]", "result": 29.9, "unit": "µM"}, {"measurement": "TGI", "setting": "[11]", "result": "> 100", "unit": "µM"}, {"measurement": "GI50", "setting": "[12]", "result": 20.7, "unit": "µM"}, {"measurement": "TGI", "setting": "[12]", "result": 73.7, "unit": "µM"}, {"measurement": "GI50", "setting": "[13]", "result": 16.2, "unit": "µM"}, {"measurement": "TGI", "setting": "[13]", "result": "> 100", "unit": "µM"}, {"measurement": "GI50", "setting": "[14]", "result": 2.52, "unit": "µM"}, {"measurement": "TGI", "setting": "[14]", "result": "> 100", "unit": "µM"}, {"measurement": "GI50", "setting": "[15]", "result": "> 100", "unit": "µM"}, {"measurement": "TGI", "setting": "[15]", "result": "> 100", "unit": "µM"}, {"measurement": "GI50", "setting": "[16]", "result": 26.7, "unit": "µM"}, {"measurement": "TGI", "setting": "[16]", "result": 92.2, "unit": "µM"}, {"measurement": "GI50", "setting": "[17]", "result": 5.04, "unit": "µM"}, {"measurement": "TGI", "setting": "[17]", "result": 41.7, "unit": "µM"}, {"measurement": "GI50", "setting": "[18]", "result": 1.11, "unit": "µM"}, {"measurement": "TGI", "setting": "[18]", "result": "> 100", "unit": "µM"}, {"measurement": "GI50", "setting": "[19]", "result": 4.68, "unit": "µM"}, {"measurement": "TGI", "setting": "[19]", "result": "> 100", "unit": "µM"}, {"measurement": "GI50", "setting": "[20]", "result": 7.86, "unit": "µM"}, {"measurement": "TGI", "setting": "[20]", "result": "> 100", "unit": "µM"}, {"measurement": "GI50", "setting": "[21]", "result": 20.3, "unit": "µM"}, {"measurement": "TGI", "setting": "[21]", "result": "> 100", "unit": "µM"}, {"measurement": "GI50", "setting": "[22]", "result": 36.1, "unit": "µM"}, {"measurement": "TGI", "setting": "[22]", "result": "> 100", "unit": "µM"}, {"measurement": "GI50", "setting": "[23]", "result": 30.1, "unit": "µM"}, {"measurement": "TGI", "setting": "[23]", "result": "> 100", "unit": "µM"}, {"measurement": "GI50", "setting": "[24]", "result": 19.3, "unit": "µM"}, {"measurement": "TGI", "setting": "[24]", "result": "> 100", "unit": "µM"}, {"measurement": "GI50", "setting": "[25]", "result": 4.39, "unit": "µM"}, {"measurement": "TGI", "setting": "[25]", "result": "> 100", "unit": "µM"}, {"measurement": "GI50", "setting": "[26]", "result": 22, "unit": "µM"}, {"measurement": "TGI", "setting": "[26]", "result": "> 100", "unit": "µM"}, {"measurement": "GI50", "setting": "[27]", "result": 2.57, "unit": "µM"}, {"measurement": "TGI", "setting": "[27]", "result": 16.1, "unit": "µM"}, {"measurement": "GI50", "setting": "[28]", "result": 0.356, "unit": "µM"}, {"measurement": "TGI", "setting": "[28]", "result": 0.539, "unit": "µM"}, {"measurement": "GI50", "setting": "[29]", "result": 4.88, "unit": "µM"}, {"measurement": "TGI", "setting": "[29]", "result": 79.7, "unit": "µM"}, {"measurement": "GI50", "setting": "[30]", "result": 46.7, "unit": "µM"}, {"measurement": "TGI", "setting": "[30]", "result": "> 100", "unit": "µM"}, {"measurement": "GI50", "setting": "[31]", "result": "> 100", "unit": "µM"}, {"measurement": "TGI", "setting": "[31]", "result": "> 100", "unit": "µM"}, {"measurement": "GI50", "setting": "[32]", "result": 65.7, "unit": "µM"}, {"measurement": "TGI", "setting": "[32]", "result": "> 100", "unit": "µM"}, {"measurement": "GI50", "setting": "[33]", "result": 15.5, "unit": "µM"}, {"measurement": "TGI", "setting": "[33]", "result": "> 100", "unit": "µM"}, {"measurement": "GI50", "setting": "[34]", "result": 1.92, "unit": "µM"}, {"measurement": "TGI", "setting": "[34]", "result": 5.88, "unit": "µM"}, {"measurement": "GI50", "setting": "[35]", "result": 4.4, "unit": "µM"}, {"measurement": "TGI", "setting": "[35]", "result": "> 100", "unit": "µM"}, {"measurement": "GI50", "setting": "[36]", "result": "> 100", "unit": "µM"}, {"measurement": "TGI", "setting": "[36]", "result": "> 100", "unit": "µM"}, {"measurement": "GI50", "setting": "[37]", "result": 42.1, "unit": "µM"}, {"measurement": "TGI", "setting": "[37]", "result": "> 100", "unit": "µM"}, {"measurement": "GI50", "setting": "[38]", "result": 46.5, "unit": "µM"}, {"measurement": "TGI", "setting": "[38]", "result": "> 100", "unit": "µM"}, {"measurement": "GI50", "setting": "[39]", "result": 1.01, "unit": "µM"}, {"measurement": "TGI", "setting": "[39]", "result": 7.16, "unit": "µM"}, {"measurement": "GI50", "setting": "[40]", "result": 13.6, "unit": "µM"}, {"measurement": "TGI", "setting": "[40]", "result": 85.9, "unit": "µM"}, {"measurement": "GI50", "setting": "[41]", "result": 4.61, "unit": "µM"}, {"measurement": "TGI", "setting": "[41]", "result": 31.1, "unit": "µM"}, {"measurement": "GI50", "setting": "[42]", "result": 1.35, "unit": "µM"}, {"measurement": "TGI", "setting": "[42]", "result": 13.8, "unit": "µM"}, {"measurement": "GI50", "setting": "[43]", "result": 1.22, "unit": "µM"}, {"measurement": "TGI", "setting": "[43]", "result": 6.94, "unit": "µM"}, {"measurement": "GI50", "setting": "[44]", "result": 20.2, "unit": "µM"}, {"measurement": "TGI", "setting": "[44]", "result": "> 100", "unit": "µM"}, {"measurement": "GI50", "setting": "[45]", "result": 14.3, "unit": "µM"}, {"measurement": "TGI", "setting": "[45]", "result": 42.5, "unit": "µM"}, {"measurement": "GI50", "setting": "[46]", "result": 1.06, "unit": "µM"}, {"measurement": "TGI", "setting": "[46]", "result": 7.68, "unit": "µM"}, {"measurement": "GI50", "setting": "[47]", "result": 32.8, "unit": "µM"}, {"measurement": "TGI", "setting": "[47]", "result": "> 100", "unit": "µM"}, {"measurement": "GI50", "setting": "[48]", "result": 0.175, "unit": "µM"}, {"measurement": "TGI", "setting": "[48]", "result": 0.328, "unit": "µM"}, {"measurement": "GI50", "setting": "[49]", "result": 2.59, "unit": "µM"}, {"measurement": "TGI", "setting": "[49]", "result": 45, "unit": "µM"}, {"measurement": "GI50", "setting": "[50]", "result": 19.1, "unit": "µM"}, {"measurement": "TGI", "setting": "[50]", "result": "> 100", "unit": "µM"}]}
